Laboratory results reported in the supplement of paper PMC11127212.

Assays:
[1] = retention time on BEH HILIC column (20 min gradient, 0.4 mL/min); higher = later elution; conditions: LC: HILIC
Method: (§1)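 Reference standards (20-100 uM) were separated by HILIC UPLC (BEH HILIC, 45 °C): acidic pH 3.0 ammonium formate/formic acid for ESI+ and basic pH 9.0 ammonium acetate/ammonia for ESI-. They were analysed on a Synapt G2-Si traveling-wave IMS-QTOF with nitrogen drift gas (WH 30 V; WV 800 m/s in ESI+ and 1000 m/s in ESI-).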

[2] = collision cross section (TWIMS, N2) of ion [M-H]-; higher = larger gas-phase ion cross section; conditions: ionization: ESI negative; LC: HILIC, pH 9.0 ammonium acetate
Method: as §1

[3] = collision cross section (TWIMS, N2) of ion [M+Na]+; higher = larger gas-phase ion cross section; conditions: ionization: ESI positive; LC: HILIC, pH 3.0 ammonium formate
Method: as §1, with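 “ESI-). CCS (TWCCSN2, Å2) was calibrated with Major Mix IMS/TOF and LockCCS leucine enkephalin; inter-day RSD was <1%.” for “ESI-).”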

[4] = collision cross section (TWIMS, N2) of ion [M+H]+; higher = larger gas-phase ion cross section; conditions: ionization: ESI positive; LC: HILIC, pH 3.0 ammonium formate
Method: as §1

[5] = ionization: ESI negative, pH 9.0 ammonium acetate
[6] = ionization: ESI positive, pH 3.0 ammonium formate

OC[C@H]1OC(O)[C@H](O)[C@@H]1O (stereo partly drawn) [D-ribose]
retention time on BEH HILIC column [1, 5]: 1.58 min
retention time on BEH HILIC column [1, 6]: 1.71 min
collision cross section [2]: 121.34 Å²
collision cross section [3]: 131.78 Å²

CCCCCCCCCCCCCCCCCCCC(=O)O [Arachidic acid]
retention time on BEH HILIC column [1, 5]: 0.73 min
retention time on BEH HILIC column [1, 6]: 0.79 min
collision cross section [2]: 193.88 Å²
collision cross section [3]: 198.31 Å²

O=C(O)CCCCCCCC(=O)O [Azelaic acid]
retention time on BEH HILIC column [1, 5]: 0.8 min
retention time on BEH HILIC column [1, 6]: 1 min
collision cross section [2]: 139.96 Å²
collision cross section [3]: 145.99 Å²

O=C(O)C(CO)c1ccccc1 (centres undefined) [Tropate]
retention time on BEH HILIC column [1, 6]: 1.08 min
collision cross section [3]: 140.74 Å²

O=C(O)CC(O)c1cccc(O)c1 (centres undefined) [3-(3-hydroxyphenyl)-3-hydroxypropanoic acid]
collision cross section [2]: 138.92 Å²
collision cross section [3]: 146.99 Å²

OC[C@@H](O)[C@@H](O)[C@H](O)[C@@H](O)CO [Sorbitol]
retention time on BEH HILIC column [1, 5]: 4.6 min
retention time on BEH HILIC column [1, 6]: 4.7 min
collision cross section [2]: 133.44 Å²
collision cross section [3]: 140.03 Å²

OC[C@@H](O)[C@@H](O)[C@@H](O)CO [Ribitol]
retention time on BEH HILIC column [1, 5]: 3.57 min
retention time on BEH HILIC column [1, 6]: 2.85 min
collision cross section [2]: 126.54 Å²
collision cross section [3]: 133.34 Å²

CC(=O)Oc1ccc(O)cc1 [4-hydroxyphenyl acetate]
retention time on BEH HILIC column [1, 5]: 0.67 min
retention time on BEH HILIC column [1, 6]: 0.88 min
collision cross section [2]: 129.47 Å²
collision cross section [3]: 138.25 Å²

OC[C@@H](O)[C@H](O)[C@@H](O)CO [D-xylitol]
retention time on BEH HILIC column [1, 5]: 3.16 min
retention time on BEH HILIC column [1, 6]: 3.16 min
collision cross section [2]: 128.01 Å²
collision cross section [3]: 133.34 Å²

O=C[C@H](O)COP(=O)(O)O [D-glyceraldehyde 3-phosphate]
retention time on BEH HILIC column [1, 5]: 12.1 min
retention time on BEH HILIC column [1, 6]: 11.6 min
collision cross section [2]: 131.08 Å²
collision cross section [3]: 137.94 Å²

OC[C@@H](O)[C@@H](O[C@H]1O[C@H](CO)[C@@H](O)[C@H](O)[C@H]1O)[C@H](O)[C@@H](O)CO [Maltitol]
retention time on BEH HILIC column [1, 5]: 6.83 min
retention time on BEH HILIC column [1, 6]: 6.7 min
collision cross section [2]: 171.26 Å²
collision cross section [3]: 174.13 Å²

CCCCC/C=C\C/C=C\CCCCCCCC(=O)O [Linoleic acid]
retention time on BEH HILIC column [1, 5]: 0.73 min
retention time on BEH HILIC column [1, 6]: 0.75 min
collision cross section [2]: 179.98 Å²
collision cross section [3]: 174.95 Å²

OC1OC[C@@H](O)[C@H](O)[C@H]1O (stereo partly drawn) [D-xylose]
retention time on BEH HILIC column [1, 6]: 2 min
collision cross section [3]: 131.78 Å²

O=P(O)(O)OC[C@H]1OC(O)[C@H](O)[C@@H](O)[C@@H]1O (some centres undefined) [Glucose 6-phosphate]
retention time on BEH HILIC column [1, 5]: 12.1 min
retention time on BEH HILIC column [1, 6]: 9.32 min
collision cross section [2]: 148.86 Å²
collision cross section [3]: 154.07 Å²

OC[C@H]1O[C@](O)(CO)[C@@H](O)[C@@H]1O [D-fructose]
retention time on BEH HILIC column [1, 6]: 3.49 min
collision cross section [3]: 140.11 Å²

CCCCCCC(=O)O [Heptanoic acid]
retention time on BEH HILIC column [1, 5]: 0.9 min
retention time on BEH HILIC column [1, 6]: 0.77 min
collision cross section [2]: 135.55 Å²
collision cross section [3]: 134.35 Å²

OC[C@H]1O[C@@H](O[C@H]2[C@H](O)[C@@H](O)[C@@H](O)O[C@@H]2CO)[C@H](O)[C@@H](O)[C@H]1O [D-lactose]
retention time on BEH HILIC column [1, 5]: 7.33 min
retention time on BEH HILIC column [1, 6]: 6.42 min
collision cross section [2]: 172.39 Å²
collision cross section [3]: 171.29 Å²

OC[C@H]1O[C@H](O[C@H]2[C@H](O)[C@H](O)[C@@H](O)O[C@@H]2CO)[C@H](O)[C@@H](O)[C@@H]1O [D-maltose]
retention time on BEH HILIC column [1, 5]: 7.95 min
retention time on BEH HILIC column [1, 6]: 6.68 min
collision cross section [2]: 171.3 Å²
collision cross section [3]: 175.45 Å²

O=C(CO)[C@@H](O)[C@H](O)[C@H](O)COP(=O)(O)O [Fructose 6-phospahte]
retention time on BEH HILIC column [1, 5]: 11.9 min
retention time on BEH HILIC column [1, 6]: 8.86 min
collision cross section [2]: 146.38 Å²
collision cross section [3]: 151.18 Å²

O=C(O)/C=C(/CC(=O)O)C(=O)O [cis-aconitic]
retention time on BEH HILIC column [1, 5]: 2.8 min
retention time on BEH HILIC column [1, 6]: 2.24 min
collision cross section [2]: 126.73 Å²
collision cross section [3]: 139.19 Å²

CCOC(=O)CC(C)C(=O)OCC (centres undefined) [Diethyl methylsuccinate]
retention time on BEH HILIC column [1, 5]: 0.95 min
retention time on BEH HILIC column [1, 6]: 0.75 min
collision cross section [2]: 139.96 Å²
collision cross section [3]: 151.23 Å²

COc1cc(/C=C/C(=O)O)ccc1O [trans-ferulic acid]
retention time on BEH HILIC column [1, 5]: 0.9 min
retention time on BEH HILIC column [1, 6]: 0.93 min
collision cross section [2]: 143.64 Å²
collision cross section [3]: 161.96 Å²

O[C@H]1[C@H](O)[C@@H](O)[C@H](O)[C@@H](O)[C@H]1O [myo-inositol]
retention time on BEH HILIC column [1, 5]: 5.92 min
retention time on BEH HILIC column [1, 6]: 5.84 min
collision cross section [2]: 133.54 Å²
collision cross section [3]: 146 Å²

OC[C@H]1O[C@@H](O)[C@H](O)[C@@H](O)[C@@H]1O [D-glucose]
retention time on BEH HILIC column [1, 6]: 3.88 min
collision cross section [3]: 143.24 Å²

OC[C@H]1O[C@H](O)[C@H](O)[C@@H](O)[C@H]1O [D-galactose]
retention time on BEH HILIC column [1, 6]: 4.2 min
collision cross section [3]: 138.53 Å²

OC[C@@H](O)[C@@H](O)CO [Erythritol]
retention time on BEH HILIC column [1, 6]: 2.08 min
collision cross section [3]: 128.38 Å²

N[C@@H](CCC(=O)N[C@@H](CSSC[C@H](NC(=O)CC[C@H](N)C(=O)O)C(=O)NCC(=O)O)C(=O)NCC(=O)O)C(=O)O [Oxidized glutathione]
retention time on BEH HILIC column [1, 5]: 12.5 min
retention time on BEH HILIC column [1, 6]: 12.6 min
collision cross section [4]: 226.92 Å²
collision cross section [2]: 216.04 Å²

O[C@H]1[C@H](O)[C@H](O)OC[C@H]1O [D-arabinose]
retention time on BEH HILIC column [1, 6]: 2.28 min
collision cross section [3]: 131.78 Å²

O=C1CC[C@@H](C(=O)O)N1 [Pyroglutamic acid]
retention time on BEH HILIC column [1, 5]: 5.48 min
retention time on BEH HILIC column [1, 6]: 6.77 min
collision cross section [4]: 126.02 Å²
collision cross section [2]: 123.74 Å²

OC[C@@]1(O)OC[C@@H](O)[C@H](O)[C@@H]1O [D-tagalose]
retention time on BEH HILIC column [1, 6]: 3.02 min
collision cross section [3]: 136.93 Å²

NCCS(=O)(=O)O [Taurine]
retention time on BEH HILIC column [1, 5]: 6.14 min
retention time on BEH HILIC column [1, 6]: 6 min
collision cross section [4]: 126.38 Å²
collision cross section [2]: 119.39 Å²

Nc1ncnc2c1ncn2[C@@H]1O[C@@H]2COP(=O)(O)O[C@H]2[C@H]1O [cAMP]
retention time on BEH HILIC column [1, 5]: 6.8 min
retention time on BEH HILIC column [1, 6]: 6.85 min
collision cross section [4]: 174.12 Å²
collision cross section [2]: 171.56 Å²

O=C(O)c1cc(O)c2cccc(O)c2n1 [Xanthurenic acid]
retention time on BEH HILIC column [1, 5]: 4.65 min
retention time on BEH HILIC column [1, 6]: 4.47 min
collision cross section [4]: 136.81 Å²
collision cross section [2]: 136.52 Å²

N=C(N)NCCC[C@H](N)C(=O)O [L-arginine]
retention time on BEH HILIC column [1, 5]: 11.1 min
retention time on BEH HILIC column [1, 6]: 10.8 min
collision cross section [4]: 136.63 Å²
collision cross section [2]: 136.62 Å²

O=C(O)Cc1c[nH]c2ccccc12 [Indoleacetic acid]
retention time on BEH HILIC column [1, 5]: 0.88 min
retention time on BEH HILIC column [1, 6]: 0.9 min
collision cross section [4]: 137.05 Å²
collision cross section [2]: 141.98 Å²

Cc1c(C)c2c(c(C)c1O)CC[C@@](C)(CCC[C@H](C)CCC[C@H](C)CCCC(C)C)O2 [a-tocopherol]
retention time on BEH HILIC column [1, 5]: 0.73 min
retention time on BEH HILIC column [1, 6]: 0.73 min
collision cross section [4]: 216.53 Å²
collision cross section [2]: 212.59 Å²

Nc1nc(=O)c2[nH]cnc2[nH]1 [Guanine]
retention time on BEH HILIC column [1, 5]: 3.65 min
retention time on BEH HILIC column [1, 6]: 3.62 min
collision cross section [4]: 128.49 Å²
collision cross section [2]: 125.12 Å²

O=c1[nH]c(=O)c2[nH]c(=O)[nH]c2[nH]1 [Uric acid]
retention time on BEH HILIC column [1, 5]: 5.34 min
retention time on BEH HILIC column [1, 6]: 3.02 min
collision cross section [4]: 133.36 Å²
collision cross section [2]: 125.59 Å²

O=C[C@H](O)[C@H](O)[C@H](O)[C@@H](O)CO [L-talose]
retention time on BEH HILIC column [1, 6]: 3.25 min
collision cross section [3]: 135.32 Å²

Cc1cc2nc3c(=O)[nH]c(=O)nc-3n(C[C@H](O)[C@H](O)[C@H](O)CO)c2cc1C [Riboflavin]
retention time on BEH HILIC column [1, 5]: 3.11 min
retention time on BEH HILIC column [1, 6]: 5.57 min
collision cross section [4]: 182.66 Å²
collision cross section [2]: 184.43 Å²

CCC(C)CCC(=O)O (centres undefined) [4-methylhexanoic acid]
retention time on BEH HILIC column [1, 5]: 0.88 min
retention time on BEH HILIC column [1, 6]: 0.99 min
collision cross section [4]: 137.57 Å²
collision cross section [2]: 134.11 Å²
